According to patent US20160185774A1, “Anti-Infective Compounds” (priority 2013, published 2016):
In brackets after ≈: the same amount, converted by molar mass.

System: M. tuberculosis
Assay: microbe, parasite or virus in culture
Format: cell-based
Conditions: Mycobacterium tuberculosis, 120 h; read-out: QUM (MIC80)

| SMILES | MIC80 [µM] |
| --- | --- |
| CCc1nc2cc(OC)ccn2c1C(=O)NCc1ccc(N2CCC(c3ccc(OC(F)(F)F)cc3)CC2)cc1 [Compound 184] | < 1 |
| CCc1nc2ccc(Br)cn2c1C(=O)NCc1ccc(N2CCC(c3ccccc3)CC2)cc1 [Compound 1] | < 1 |
| CCc1nc2cc(Cl)ccn2c1C(=O)NCc1ccc(NC(=O)NC(C)(C)C)cc1 [Compound 277] | > 20 |
| CCc1nc2ccc(C)cn2c1C(=O)NCc1ccc(N2CCC(c3ccccc3)CC2)cc1 [Compound 216] | < 1 |
| CCc1nc2ccc(Br)cn2c1C(=O)NCc1ccc(N2CCC(c3ccc(OC)cc3)CC2)cc1 [Compound 2] | < 1 |
| CCc1nc2cc(Cl)ccn2c1C(=O)NCc1ccc(-c2ccc(C(=O)O)cc2)cc1 [Compound 335] | < 1 |
| CCc1nc2c(Cl)cccn2c1C(=O)NCc1ccc(N2CCC(c3ccc(OC)cc3)CC2)cc1 [Compound 98] | < 1 |
| CCc1nc2ccc(Cl)cn2c1C(=O)NCc1ccc(N2CC[C@@H](Oc3ccc(Cl)cc3)C2)cc1 [Compound 340] | < 1 |
| CCc1nc2cc(Cl)ccn2c1C(=O)NCc1ccc2nc[nH]c2c1 [Compound 276] | > 20 |
| CCc1nc2c(F)cccn2c1C(=O)NCc1ccc(N2CCC(c3ccc(F)cc3)CC2)cc1 [Compound 148] | < 1 |
| CCc1nc2ccc(Cl)cn2c1C(=O)NCc1ccc(N2CCC(c3ccc(C)cc3)CC2)cc1 [Compound 7] | < 1 |
| CCc1nc2cc(F)ccn2c1C(=O)NCc1ccc(N2CCC(c3ccc(F)cc3)CC2)cc1 [Compound 137] | < 1 |
| Cc1nc2ccc(F)cn2c1C(=O)NCc1ccc(N2CCC(c3ccc(C(F)(F)F)cc3)CC2)cc1 [Compound 315] | < 1 |
| CCc1nc2ccc(C(F)(F)F)cn2c1C(=O)NCc1ccc(N2CCC(c3ccc(C(F)(F)F)cc3)CC2)cc1 [Compound 146] | < 1 |
| CCc1nc2cc(Cl)ccn2c1C(=O)NCc1ccc(N2CCN(c3ccc(Cl)cc3)CC2)cc1 [Compound 194] | < 1 |
| CCc1nc2cc(C(F)(F)F)ccn2c1C(=O)NCc1ccc(N2CCN(c3ccccc3)CC2)cc1 [Compound 81] | < 1 |
| CCc1nc2c(C)cccn2c1C(=O)NCc1ccc(N2CCN(c3ccc(OC(F)(F)F)cc3)CC2)cc1 [Compound 44] | < 1 |
| CCc1nc2ccc(OC)cn2c1C(=O)NCc1ccc(N2CCN(c3ccc(OC)cc3)CC2)cc1 [Compound 111] | < 1 |
| CCc1nc2ccc(Cl)cn2c1C(=O)NCc1ccc(N2CCC(O)(CC)CC2)cc1 [Compound 238] | < 1 |
| CCc1nc2ccc(C(F)(F)F)cn2c1C(=O)NCc1ccc(N2CCC(c3ccc(OC(F)(F)F)cc3)CC2)cc1 [Compound 223] | < 1 |
| CCc1nc2ccc(F)cn2c1C(=O)NCc1ccc(N2CCN(c3ccc(OC(F)(F)F)cc3)CC2)cc1 [Compound 42] | < 1 |
| CCc1nc2ccc(C(F)(F)F)cn2c1C(=O)NCc1ccc(N2CCC(c3ccc(F)cc3)CC2)cc1 [Compound 227] | < 1 |
| CCc1nc2cc(C)ccn2c1C(=O)NCc1ccc(N2CCN(c3ccc(C)cc3)CC2)cc1 [Compound 141] | < 1 |
| CCc1nc2ccc(OC)cn2c1C(=O)NCc1ccc(N2CCN(c3ccc(OC(F)(F)F)cc3)CC2)cc1 [Compound 107] | < 1 |
| CCc1nc2ccc(OC)cn2c1C(=O)NCc1ccc(N2CCC(c3ccc(C(F)(F)F)cc3)CC2)cc1 [Compound 126] | < 1 |
| Cc1nc2c(F)cccn2c1C(=O)NCc1ccc(N2CCC(c3ccc(OC(F)(F)F)cc3)CC2)cc1 [Compound 312] | < 1 |

| SMILES | MIC80 [µM] |
| --- | --- |
| CCc1nc2ccc(Cl)cn2c1C(=O)NCc1ccc(N2CCN(c3ccc(C)cc3)CC2)cc1 [Compound 36] | < 1 |
| CCc1nc2ccc(Cl)cn2c1C(=O)NCc1ccc(C(=O)N(C)Cc2ccc(F)cc2)cc1 [Compound 317] | 1 to 20 (≈ 0.479 to 9.58 µg/mL) |
| CCc1nc2ccccn2c1C(=O)NCc1ccc(N2CCC(c3ccccc3)CC2)cc1 [Compound 170] | < 1 |
| CCc1nc2c(C(F)(F)F)cccn2c1C(=O)NCc1ccc(N2CCN(c3ccc(OC(F)(F)F)cc3)CC2)cc1 [Compound 202] | 1 to 20 (≈ 0.592 to 11.8 µg/mL) |
| CCc1nc2c(OC)cccn2c1C(=O)NCc1ccc(N2CCC(c3ccc(C)cc3)CC2)cc1 [Compound 215] | 1 to 20 (≈ 0.483 to 9.65 µg/mL) |
| CCc1nc2cc(OC)ccn2c1C(=O)NCc1ccc(N2CCC(c3ccc(C(F)(F)F)cc3)CC2)cc1 [Compound 195] | < 1 |
| CCc1nc2cc(Cl)ccn2c1C(=O)NCc1ccc(C(=O)CN2CCOCC2)cc1 [Compound 304] | 1 to 20 (≈ 0.441 to 8.82 µg/mL) |
| CCc1nc2cc(C)ccn2c1C(=O)NCc1ccc(N2CCC(c3ccc(C)cc3)CC2)cc1 [Compound 231] | < 1 |
| CCc1nc2ccc(Br)cn2c1C(=O)NCc1ccc(N2CCN(c3ccc(C(F)(F)F)cc3)CC2)cc1 [Compound 156] | < 1 |
| CCc1nc2ccc(C)cn2c1C(=O)NCc1ccc(N2CCN(c3ccc(Cl)cc3)CC2)cc1 [Compound 66] | < 1 |
| CCc1nc2cc(F)ccn2c1C(=O)NCc1ccc(N2CCN(c3ccc(C)cc3)CC2)cc1 [Compound 93] | < 1 |
| CCc1nc2cc(OC)ccn2c1C(=O)NCc1ccc(N2CCC(c3ccc(Cl)cc3)CC2)cc1 [Compound 21] | < 1 |
| CCc1nc2ccc(Cl)cn2c1C(=O)NCc1ccc(N2CCN(c3ccccc3)CC2)cc1 [Compound 68] | < 1 |
| CCC1N=C2C=CC(Cl)=CN2C1C(=O)NCc1ccc2oc(C)nc2c1 (stereo not shown) [Compound 338] | < 1 |
| CCc1nc2c(F)cccn2c1C(=O)NCc1ccc(N2CCC(c3ccc(C)cc3)CC2)cc1 [Compound 6] | < 1 |
| CCc1nc2c(OC)cccn2c1C(=O)NCc1ccc(N2CCN(c3ccc(Cl)cc3)CC2)cc1 [Compound 103] | 1 to 20 (≈ 0.504 to 10.1 µg/mL) |
| CCc1nc2ccc(F)cn2c1C(=O)NCc1ccc(N2CCN(c3ccc(C(F)(F)F)cc3)CC2)cc1 [Compound 76] | < 1 |
| CCc1nc2c(OC)cccn2c1C(=O)NCc1ccc(N2CCN(c3ccc(OC)cc3)CC2)cc1 [Compound 58] | 1 to 20 (≈ 0.5 to 9.99 µg/mL) |
| CCc1nc2c(OC)cccn2c1C(=O)NCc1ccc(N2CCC(c3ccc(OC)cc3)CC2)cc1 [Compound 152] | 1 to 20 (≈ 0.499 to 9.97 µg/mL) |
| CCc1nc2ccc(Cl)cn2c1C(=O)NCc1ccc(N2CCC(c3ccc(OC)cc3)CC2)cc1 [Compound 16] | < 1 |
| CCc1nc2cc(Cl)ccn2c1C(=O)NCc1ccc(N2CCC(C(=O)OCCN3CCOCC3)CC2)cc1 [Compound 337] | < 1 |
| CCc1nc2ccc(Cl)cn2c1C(=O)NCc1ccc(N2CCC(OCc3ccccc3)CC2)cc1 [Compound 233] | < 1 |
| CCc1nc2ccc(OC)cn2c1C(=O)NCc1ccc(N2CCC(c3ccc(Cl)cc3)CC2)cc1 [Compound 172] | < 1 |
| CCc1nc2ccc(Cl)cn2c1C(=O)NCc1ccc(N2CCN(C(=O)c3ccc(F)cc3)CC2)cc1 [Compound 235] | < 1 |
| CCc1nc2ccc(Cl)cn2c1C(=O)NCc1ccc(N2CCC(NC(=O)c3ccc(F)cc3)CC2)cc1 [Compound 234] | > 20 |
| CCc1nc2cc(Br)ccn2c1C(=O)NCc1ccc(N2CCN(c3ccc(OC)cc3)CC2)cc1 [Compound 208] | < 1 |

| SMILES | MIC80 [µM] |
| --- | --- |
| CCc1nc2ccccn2c1C(=O)NCc1ccc(N2CCN(c3ccccc3)CC2)cc1 [Compound 62] | < 1 |
| CCc1nc2cc(Br)ccn2c1C(=O)NCc1ccc(N2CCN(c3ccc(C)cc3)CC2)cc1 [Compound 207] | < 1 |
| CCc1nc2ccc(Cl)cn2c1C(=O)NCc1ccc(NC23CC4CC(CC(C4)C2)C3)cc1 [Compound 321] | < 1 |
| CCc1nc2ccc(Cl)cn2c1C(=O)NCc1ccc(C(=O)Nc2ccc(F)cc2)cc1 [Compound 301] | < 1 |
| CCc1nc2c(Cl)cccn2c1C(=O)NCc1ccc(N2CCC(c3ccc(C)cc3)CC2)cc1 [Compound 147] | < 1 |
| CCc1nc2c(Br)cccn2c1C(=O)NCc1ccc(N2CCC(c3ccccc3)CC2)cc1 [Compound 168] | 1 to 20 (≈ 0.517 to 10.3 µg/mL) |
| CCc1nc2cc(C(F)(F)F)ccn2c1C(=O)NCc1ccc(N2CCC(c3ccc(Cl)cc3)CC2)cc1 [Compound 186] | < 1 |
| CCc1nc2ccc(Cl)cn2c1C(=O)NCc1ccc(N2CCN(c3ccc(OC)cc3)CC2)cc1 [Compound 33] | < 1 |
| CCc1nc2c(C(F)(F)F)cccn2c1C(=O)NCc1ccc(N2CCN(c3ccc(Cl)cc3)CC2)cc1 [Compound 209] | 1 to 20 (≈ 0.542 to 10.8 µg/mL) |
| CCc1nc2cc(C(F)(F)F)ccn2c1C(=O)NCc1ccc(N2CCN(c3ccc(F)cc3)CC2)cc1 [Compound 86] | < 1 |
| CCc1nc2cc(F)ccn2c1C(=O)NCc1ccc(N2CCN(c3ccccc3)CC2)cc1 [Compound 69] | < 1 |
| CCc1nc2ccc(F)cn2c1C(=O)NCc1ccc(N2CCN(c3ccc(Cl)cc3)CC2)cc1 [Compound 77] | < 1 |
| CCc1nc2c(C(F)(F)F)cccn2c1C(=O)NCc1ccc(N2CCN(c3ccc(F)cc3)CC2)cc1 [Compound 198] | 1 to 20 (≈ 0.526 to 10.5 µg/mL) |
| CCc1nc2cc(OC)ccn2c1C(=O)NCc1ccc(N2CCN(c3ccc(C)cc3)CC2)cc1 [Compound 108] | < 1 |
| CCc1nc2c(Cl)cccn2c1C(=O)NCc1ccc(N2CCC(c3ccc(Cl)cc3)CC2)cc1 [Compound 53] | < 1 |
| CCc1nc2ccc(C(F)(F)F)cn2c1C(=O)NCc1ccc(N2CCC(c3ccc(C)cc3)CC2)cc1 [Compound 169] | < 1 |
| CCc1nc2ccc(C(F)(F)F)cn2c1C(=O)NCc1ccc(N2CCN(c3ccc(C)cc3)CC2)cc1 [Compound 102] | < 1 |
| CCc1nc2ccc(C(F)(F)F)cn2c1C(=O)NCc1ccc(N2CCC(c3ccccc3)CC2)cc1 [Compound 178] | < 1 |
| CCc1nc2c(C)cccn2c1C(=O)NCc1ccc(N2CCC(c3ccccc3)CC2)cc1 [Compound 73] | < 1 |
| CCc1nc2c(OC)cccn2c1C(=O)NCc1ccc(N2CCC(c3ccc(C(F)(F)F)cc3)CC2)cc1 [Compound 125] | 1 to 20 (≈ 0.537 to 10.7 µg/mL) |
| CCc1nc2ccc(Cl)cn2c1C(=O)NCc1ccc(N2CCC(C(=O)c3ccc(F)cc3)CC2)cc1 [Compound 240] | < 1 |
| CCc1nc2c(Cl)cccn2c1C(=O)NCc1ccc(N2CCN(c3ccc(C)cc3)CC2)cc1 [Compound 160] | < 1 |
| CCc1nc2c(C)cccn2c1C(=O)NCc1ccc(N2CCN(c3ccccc3)CC2)cc1 [Compound 41] | < 1 |
| CCc1nc2ccc(Cl)cn2c1C(=O)NCc1ccc(C(=O)N(C)c2ccc(F)cc2)cc1 [Compound 305] | 1 to 20 (≈ 0.465 to 9.3 µg/mL) |
